Legend:
human mGluR5a receptor [1] = biological target: T1, human mGluR5a receptor (Homo sapiens, UniProt P41594); test: Functional Assay 3: as Functional Assay 2 but clone H12H; type: cell-based; settings: for EC50: glutamate EC20; for Emax: maximum average response at a single concentration
T1 construct: host or cells: HEK293A (monoclones H10H and H12H)
Protocol: (§1) HEK cells transfected with the human mGluR5a receptor (H10H cell line) were plated at 15.000 cells/well in clear-bottomed poly-D-lysine-coated assay plates (BD Falcon) in glutamate-glutamine-free growth medium and incubated overnight at 37° C. and 5% CO2. The following day, the growth medium was removed and the cells were washed with assay buffer containing 1× Hank's balanced salt solution (Invitrogen, Carlsbad, Calif.), 20 mM HEPES, 2.5 mM probenecid, pH 7.4 and left with 20 μL of this reagent. Following this step, the cells were loaded with calcium indicator dye, fluo-4 AM, to a final concentration of 2 μM and incubated for 40-45 min at 37° C. The dye solution was removed and replaced with assay buffer. Cell plates were held for 10-15 min at room temperature and were then loaded into the Functional Drug Screening System 6000 (FDSS 6000, Hamamatsu, Japan).
(§2) After establishment of a fluorescence baseline for about 3 seconds, the compounds of the present invention were added to the cells, and the response in cells was measured. 2.3 minutes later an EC20 concentration of the mGluR5 receptor agonist glutamate was added to the cells, and the response of the cells was measured for about 1.7 minutes. All test compounds were dissolved and diluted to a concentration of 10 mM in 100% DMSO and then serially diluted into assay buffer for a 2× stock solution in 0.6% DMSO; stock compounds were then added to the assay for a final DMSO concentration of 0.3% after the first addition to the assay well. Calcium fluorescence measures were recorded as fold over basal fluorescence; raw data was then normalized to the maximal response to glutamate. Potentiation of the agonist response of the mGluR5 receptor in the present invention was observed as an increase in response to submaximal concentrations of glutamate in the presence of compound compared to the response to glutamate in the absence of compound.
The concentration-response curves of compounds of the present invention, obtained in the presence of EC20 of mGluR5 receptor agonist glutamate to determine positive allosteric modulation, were generated using Microsoft Excel with IDBS XLfit add-ins. The raw data file containing all time points was used as the data source in the analysis template. This was saved by the FDSS as a tab-delimitted text file. Data were normalized using a static ratio function (F/F0) for each measurement of the total 350 values per well divided by each well's initial value. Data was then reduced as to peak amplitudes (Max−Initial Min) using a time range that starts approximately 1 second after the glutamate EC20 addition and continues for approximately 40 seconds. This is sufficient time to capture the peak amplitude of the cellular calcium response. Individual amplitudes were expressed as % effect by multiplying each amplitude by 100 and then dividing the product by the mean of the amplitudes derived from the glutamate ECMax-treated wells. pEC50 values for test compounds were generated by fitting the normalized values versus the log of the test compound concentration (in mol/L) using a 4 parameter logistic equation where none of the parameters were fixed. Each of the three values collected at each concentration of test compound were weighted evenly. Individual values falling outside the 95% prediction limits of the curve fit were automatically excluded from the fit. […] These two methods are in good agreement for curves with a clear plateau at the high concentration range. […] For consistency purposes across the range of potencies observed, all Emax values reported in this application are calculated using the maximum average response at a single concentration.
Functional Assay 3 was performed under the same conditions as Functional Assay 2, except that clone H12H was used instead of clone H10H.
The clones that were used in the primary functional assay gave undiscernable differences in this assay.

human mGluR5 receptor = biological target: T2, human mGluR5 receptor (Homo sapiens, UniProt P41594); test: Functional Assay 1: intracellular Ca2+ mobilization, positive allosteric modulation of glutamate EC20 response; type: cell-based; settings: for Emax: maximum % effect relative to glutamate ECMax
T2 construct: expressed in transfected cells; host or cells: HEK-293
Protocol: HEK-293 cells were stable transfected with human mGluR5a cDNA in expression vector pcDNA4/TO. For Assay 1, these human mGluR5 receptor over-expressing HEK-293 cells were grown at a density of 40,000 cells/well in PDL-coated 384-well plates. The following day, cells were preloaded with the calcium-sensing dye Fluo-4 AM and various concentrations of test compound were added in the absence of exogenous glutamate to test for direct agonist activity. Shortly (2.5 min) thereafter, an EC20 equivalent of glutamate (˜0.2 μM) was added. The fluorescence signal was monitored using a Hamamatsu Functional Drug Screening System (FDSS) fluorescence plate reader following the addition of compound alone (direct agonist response) and then the further addition of an EC20 of glutamate (positive allosteric modulation response). The pEC50 was defined as the negative log of the test compound concentration which produced an increase in the glutamate EC20-mediated response that was 50% of maximum. Individual amplitudes were expressed as % effect by multiplying each amplitude by 100 and then dividing the product by the mean of the amplitudes derived from the glutamate ECMax-treated wells. Emax values reported in this application are defined as the maximum % effect obtained in a concentration-response curve.

human mGluR5a receptor [2] = biological target: T1, human mGluR5a receptor; test: Functional Assay 2: Ca2+ mobilization, HEK cells with human mGluR5a receptor (H10H cell line); type: cell-based; settings: H10H cell line; for EC50: glutamate EC20; for Emax: HEK293, maximum average response at a single concentration, relative to glutamate ECMax
Protocol: Human mGluR5a cDNA in pCMV6-XL6 mammalian expression plasmid was purchased from OriGene Technologies, Inc. (catalogue number SC326357) and subcloned into pcDNA3.1(−). […] Monoclones were named for the species (“H” for human) plus the location on the plate (e.g. “10H”).
as §1, with “The” for “HEK cells transfected with the human mGluR5a receptor (H10H cell line) were plated at 15.000 cells/well in clear-bottomed poly-D-lysine-coated assay plates (BD Falcon) in glutamate-glutamine-free growth medium and incubated overnight at 37° C. and 5% CO2. The”
as §2, with “glutamate.” for “glutamate. Potentiation of the agonist response of the mGluR5 receptor in the present invention was observed as an increase in response to submaximal concentrations of glutamate in the presence of compound compared to the response to glutamate in the absence of compound.”
The concentration-response curves of compounds of the present invention, obtained in the presence of EC20 of mGluR5 receptor agonist glutamate to determine positive allosteric modulation, were generated using Microsoft Excel with IDBS XLfit add-ins. The raw data file containing all time points was used as the data source in the analysis template. This was saved by the FDSS as a tab-delimitted text file. Data were normalized using a static ratio function (F/F0) for each measurement of the total 350 values per well divided by each well's initial value. […] This is sufficient time to capture the peak amplitude of the cellular calcium response. […] Each of the three values collected at each concentration of test compound were weighted evenly. […] These two methods are in good agreement for curves with a clear plateau at the high concentration range.

[3] = human mGluR5 over-expressing HEK-293 cells, glutamate EC20 (~0.2 μM), updated value
[4] = original value, which was updated as compound was further tested

T2 sequence (P41594 21-1180 isoform P41594-2 limits assumed): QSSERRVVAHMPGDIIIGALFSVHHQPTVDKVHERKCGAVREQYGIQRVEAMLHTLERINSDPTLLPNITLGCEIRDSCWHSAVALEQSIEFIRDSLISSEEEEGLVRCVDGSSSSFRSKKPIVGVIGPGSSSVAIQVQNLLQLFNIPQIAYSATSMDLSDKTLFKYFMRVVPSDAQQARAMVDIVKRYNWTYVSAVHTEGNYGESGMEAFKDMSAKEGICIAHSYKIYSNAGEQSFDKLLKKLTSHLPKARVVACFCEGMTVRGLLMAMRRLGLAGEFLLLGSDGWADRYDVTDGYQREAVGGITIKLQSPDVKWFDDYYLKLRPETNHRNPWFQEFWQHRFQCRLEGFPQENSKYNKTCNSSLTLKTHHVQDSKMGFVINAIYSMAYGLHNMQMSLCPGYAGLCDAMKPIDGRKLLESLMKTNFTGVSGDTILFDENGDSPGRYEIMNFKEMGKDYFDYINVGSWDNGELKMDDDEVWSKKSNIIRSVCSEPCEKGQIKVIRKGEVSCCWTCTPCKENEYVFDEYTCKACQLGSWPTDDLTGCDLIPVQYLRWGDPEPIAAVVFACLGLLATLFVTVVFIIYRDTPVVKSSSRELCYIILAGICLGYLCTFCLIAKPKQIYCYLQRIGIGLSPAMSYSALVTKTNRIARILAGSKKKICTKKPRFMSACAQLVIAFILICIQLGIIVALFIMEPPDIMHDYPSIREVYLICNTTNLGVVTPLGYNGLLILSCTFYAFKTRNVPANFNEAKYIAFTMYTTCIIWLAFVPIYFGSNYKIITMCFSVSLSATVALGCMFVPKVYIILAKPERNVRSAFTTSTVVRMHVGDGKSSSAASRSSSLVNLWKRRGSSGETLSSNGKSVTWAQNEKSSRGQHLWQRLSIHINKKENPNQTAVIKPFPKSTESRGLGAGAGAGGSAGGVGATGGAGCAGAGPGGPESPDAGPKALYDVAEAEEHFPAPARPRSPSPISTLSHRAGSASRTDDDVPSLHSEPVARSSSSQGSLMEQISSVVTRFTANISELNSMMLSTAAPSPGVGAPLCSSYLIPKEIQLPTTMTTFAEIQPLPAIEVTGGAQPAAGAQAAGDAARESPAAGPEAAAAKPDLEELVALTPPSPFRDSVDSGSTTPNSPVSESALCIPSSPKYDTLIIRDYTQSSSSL
T1 sequence (P41594 21-1180 isoform P41594-2 limits assumed): as above

| SMILES | EC50 (human mGluR5a receptor [1]) | Emax (human mGluR5a receptor [1]) | EC50 (human mGluR5 receptor; [3]) | Emax (human mGluR5 receptor) | EC50 (human mGluR5 receptor; [4]) | EC50 (human mGluR5a receptor [2]) | Emax (human mGluR5a receptor [2]) | melting point |
| --- | --- | --- | --- | --- | --- | --- | --- | --- |
| O=C1c2sc(COc3ccccc3)nc2CCN1c1ccc(F)cc1 [Compound 9, 5-(4-fluorophenyl)-6,7-dihydro-2-(phenoxymethyl)-thiazolo[5,4-c]pyridin-4(5H)-one] | 112 nM | 79% |  |  |  |  |  |  |
| O=C1c2sc(OCc3ccccc3)nc2CCN1c1ccc(F)cc1F [Compound 12, 5-(2,4-difluorophenyl)-6,7-dihydro-2-(phenylmethoxy)-thiazolo[5,4-c]pyridin-4(5H)-one] |  |  | 1950 nM | 71% | 550 nM | 182 nM | 67% | 135 °C |
| O=C1c2sc(OCc3ccccc3)nc2CCN1Cc1ccc(F)cc1 [Compound 14, 5-[(4-fluorophenyl)methyl]-6,7-dihydro-2-(phenylmethoxy)-thiazolo[5,4-c]pyridin-4(5H)-one] |  |  | 5130 nM | 88% | 4470 nM | 2240 nM | 52% | 95.8 to 99 °C |
| O=C1c2sc(OCc3ccccc3)nc2CCN1Cc1cccc(F)c1 [Compound 15, 5-[(3-fluorophenyl)methyl]-6,7-dihydro-2-(phenylmethoxy)-thiazolo[5,4-c]pyridin-4(5H)-one] |  |  | 3720 nM | 67% | 2570 nM | 912 nM | 59% | 80.1 to 82 °C |
| O=C1c2sc(OCc3ccccc3)nc2CCN1Cc1ccccc1F [Compound 16, 5-[(2-fluorophenyl)methyl]-6,7-dihydro-2-(phenylmethoxy)-thiazolo[5,4-c]pyridin-4(5H)-one] |  |  | 5370 nM | 88% | 3630 nM | 1230 nM | 56% | 77.4 to 79.2 °C |
| O=C1c2sc(OCc3cccc(F)c3)nc2CCN1c1ccc(F)cc1F [Compound 17, 5-(2,4-difluorophenyl)-2-[(3-fluorophenyl)methoxy]-6,7-dihydro-thiazolo[5,4-c]pyridin-4(5H)-one] |  |  | 692 nM | 82% | 741 nM | 295 nM | 61% | 121.1 to 122.7 °C |
| O=C1c2sc(OCc3ccccc3F)nc2CCN1c1ccc(F)cc1F [Compound 18, 5-(2,4-difluorophenyl)-2-[(2-fluorophenyl)methoxy]-6,7-dihydro-thiazolo[5,4-c]pyridin-4(5H)-one] |  |  | 617 nM | 76% | 513 nM | 427 nM | 72% | 78.9 to 80.7 °C |
| O=C1c2sc(OCc3cccc(F)c3)nc2CCN1c1cccc(F)c1 [Compound 27, 5-(3-fluorophenyl)-2-[(3-fluorophenyl)methoxy]-6,7-dihydro-thiazolo[5,4-c]pyridin-4(5H)-one] |  |  | 110 nM | 57% |  |  |  | 111.3 to 111.9 °C |
| O=C1c2sc(COc3cccc(F)c3)nc2CCN1c1ccc(F)cc1F [Compound 28, 5-(2,4-difluorophenyl)-2-[(3-fluorophenoxy)methyl]-6,7-dihydro-thiazolo[5,4-c]pyridin-4(5H)-one] | 85.1 nM | 63% |  |  |  |  |  |  |
| C[C@@H](N1CCc2nc(COc3ccccc3)sc2C1=O)C(C)(C)C [Compound 35, 6,7-dihydro-2-(phenoxymethyl)-5-[(1R)-1,2,2-trimethylpropyl]-thiazolo[5,4-c]pyridin-4(5H)-one] | 794 nM | 60% |  |  |  |  |  |  |
| O=C1c2sc(COc3ccc(Cl)cc3)nc2CCN1c1ccc(F)cc1 [Compound 60, 2-[(4-chlorophenoxy)methyl]-5-(4-fluorophenyl)-6,7-dihydro-thiazolo[5,4-c]pyridin-4(5H)-one] |  |  | > 30200 nM | 28% |  |  |  | 186.9 °C |
| O=C1c2sc(OCc3ccc(F)c(F)c3)nc2CCN1c1ccc(F)cc1F [Compound 74, 5-(2,4-difluorophenyl)-2-[(3,4-difluorophenyl)methoxy]-6,7-dihydro-thiazolo[5,4-c]pyridin-4(5H)-one] |  |  | > 30200 nM | 32% |  |  |  | 136.9 to 137.2 °C |
| N#Cc1ccc(COc2nc3c(s2)C(=O)N(c2ccc(F)cc2F)CC3)cc1 [Compound 75, 4-[[[5-(2,4-difluorophenyl)-4,5,6,7-tetrahydro-4-oxothiazolo[5,4-c]pyridin-2-yl]oxy]methyl]-benzonitrile] |  |  | > 30200 nM | 19% |  |  |  | 180.9 to 183.1 °C |
| N#Cc1ccccc1COc1nc2c(s1)C(=O)N(c1ccc(F)cc1F)CC2 [Compound 76, 2-[[[5-(2,4-difluorophenyl)-4,5,6,7-tetrahydro-4-oxothiazolo[5,4-c]pyridin-2-yl]oxy]methyl]-benzonitrile] |  |  | > 30200 nM | 19% |  |  |  | 166.1 to 168.3 °C |
| O=C1c2sc(OCc3ccc(C(F)(F)F)cc3)nc2CCN1c1ccc(F)cc1F [Compound 78, 5-(2,4-difluorophenyl)-6,7-dihydro-2-[[4-(trifluoromethyl)phenyl]methoxy]-thiazolo[5,4-c]pyridin-4(5H)-one] |  |  | > 30200 nM | 27% |  |  |  | > 280 °C |
| COc1ccccc1COc1nc2c(s1)C(=O)N(c1ccc(F)cc1F)CC2 [Compound 79, 5-(2,4-difluorophenyl)-6,7-dihydro-2-[(2-methoxyphenyl)methoxy]-thiazolo[5,4-c]pyridin-4(5H)-one] |  |  | > 30200 nM | 21% |  |  |  | > 280 °C |
| O=C1c2sc(OCc3ccccc3C(F)(F)F)nc2CCN1c1ccc(F)cc1F [Compound 81, 5-(2,4-difluorophenyl)-6,7-dihydro-2-[[2-(trifluoromethyl)phenyl]methoxy]-thiazolo[5,4-c]pyridin-4(5H)-one] |  |  | > 30200 nM | 25% |  |  |  | > 280 °C |

Source: patent US9040707B2, “Bicyclic thiazoles as allosteric modulators of mGluR5 receptors” (Janssen Pharmaceutica NV, priority 2009, dated 2015)
